This note sets out measurements from patent US20180112193A1, “CSF1 THERAPEUTICS” (University Court Of The University Of Edinburgh, priority 2013, published 2018).

The test system of data set [1] is male C57BI6 mice. The data set can be described thus: 2/3 partial hepatectomy in mice. The class given is in vivo, mouse. The procedure: Forty-eight male C57BI6 mice aged 10-12 weeks underwent either 2/3 partial hepatectomy, paracetamol intoxication or chronic liver injury plus 2/3 partial hepatectomy. 2/3 partial hepatectomy was performed by ligating the left lobe and left and right median lobes. Paracetamol intoxication was performed by intraperitoneal administration of 350 mg/kg paracetamol dissolved in phosphate buffered saline (PBS). Chronic liver injury plus 2/3 partial hepatectomy was performed by eight weeks intraperitoneal carbon tetrachloride administration 1 mcl/g twice weekly dissolved in olive oil followed by ⅔ partial hepatectomy as described above. […] Control mice (n=8 per injury model) received subcutaneous PBS of appropriate volume. […]
Following a midline laparotomy the liver was excised and weighed. Liver weight to body weight ratio was calculated and expressed as a percentage. Livers were fixed in 4% formalin overnight then transferred to 70% ethanol. Livers were then embedded in paraffin blocks and 4 μm sections cut. Immunohistochemistry for Ki67 (a marker of cellular proliferation expressed throughout the cell cycle) was performed following heat mediated antigen retrieval in Tris/EDTA solution at pH9. Hepatocyte proliferation was quantified by counting ki67 positive hepatocytes in 20 high powered fields (400×) per animal and the mean calculated. […]

The subject of data set [2] is male C57BI6 mice. The data set is described as follows: Paracetamol intoxication in mice. The note with it: CSF1 receptor blockade, 180 mg/kg via gavage; Day 3 post injury. The class given is in vivo, mouse. The method, then:
Forty-eight male C57BI6 mice aged 10-12 weeks underwent either 2/3 partial hepatectomy, paracetamol intoxication or chronic liver injury plus 2/3 partial hepatectomy. 2/3 partial hepatectomy was performed by ligating the left lobe and left and right median lobes. Paracetamol intoxication was performed by intraperitoneal administration of 350 mg/kg paracetamol dissolved in phosphate buffered saline (PBS). Chronic liver injury plus 2/3 partial hepatectomy was performed by eight weeks intraperitoneal carbon tetrachloride administration 1 mcl/g twice weekly dissolved in olive oil followed by ⅔ partial hepatectomy as described above. […] Control mice (n=8 per injury model) received subcutaneous PBS of appropriate volume. All mice were culled on day 4 following injury (partial hepatectomy or paracetamol intoxication).
Following a midline laparotomy the liver was excised and weighed. Liver weight to body weight ratio was calculated and expressed as a percentage. Livers were fixed in 4% formalin overnight then transferred to 70% ethanol. Livers were then embedded in paraffin blocks and 4 μm sections cut. Immunohistochemistry for Ki67 (a marker of cellular proliferation expressed throughout the cell cycle) was performed following heat mediated antigen retrieval in Tris/EDTA solution at pH9. Hepatocyte proliferation was quantified by counting ki67 positive hepatocytes in 20 high powered fields (400×) per animal and the mean calculated.
Hepatic CSF1 gene expression was assessed in mice following paracetamol intoxication (350 mg/kg paracetamol IP following overnight fast) at time points up to 4 days, showing peak CSF1 gene expression at day 2 (FIG. 14A).

Data set [3] deals with csf1r-EGFP (MacGreen) mice. The data set is described as follows: Fc-CSF-1 injected subcutaneously into csf1r-EGFP mice on 4 days, sacrificed on the 5th day. The class given is in vivo, mouse. The note with it: 1 mg/kg. The procedure:
Mice were injected with Fc-CSF-1 subcutaneously on each of 4 days and sacrificed on the 5th day. The mice were csf1r-EGFP (MacGreen) mice on the C57BI/6 background. Tissue processing and immunohistochemistry were carried out as described in (Alikhan et al Am J. Pathol. 179, 1243-1256, 2011 and Macdonald et al Blood. 116, 3955-3963, 2010). A comparison of the effect of recombinant pig CSF-1 or Fc-CSF-1 on the proliferation of mouse bone marrow cells or the Ba/F3 CS1R reporter cell line using the assay described in Gow et al Cytokine.

Data set [4] in a line: Pig PK (plasma ELISA). The class given is in vivo. The note with it: weaner pigs; 0.5 mg/kg SC. The method, then:
Porcine CSF-1 Fc-fusion plasma levels were detected using an in-house developed conventional sandwich ELISA utilizing commercially available antibodies. Capture antibody was Abcam ab9693 (0.3 μg/mL) and detection antibody was Rabbit anti-pig IgG (Fc) biotinylated Alpha Diagnostic 90440 (1:5000 dilution). Standard protein was generated and purified in-house (lot 2/24/11 JAS). Standards were added to each plate along with the samples resulting in an 11 point standard range of 2700 ng/mL to […]. This allowed for quantitation of each sample to a standard curve on every assay plate. Assay detection was done using Pierce High Sensitivity Streptavidin-HRP (1:10,000 dilution) and TMB Microwell Peroxidase Substrate System solution (KPL).
Weaner age barrows (<14 kg) were assigned to three treatment groups receiving a single intravenous (IV) or subcutaneous (SC) dose as follows. Three pigs received 0.5 mg/kg CSF-1 non-fusion dosed SC. Two pigs received 1.2 mg/kg CSF-1:Fc fusion dosed IV. Two pigs received 1.2 mg/kg CSF-1:Fc dosed SC. One ml plasma samples were obtained via the V. jugularis in EDTA anticoagulant tubes and placed on ice until centrifuged. The plasma was transferred to sterile tubes stored at ≤−10° C. until analysis. Serial plasma samples were obtained from each animal at pre-dose and 5 minutes, 30 minutes, 1 hour, 2 hours, 4 hours, 6 hours, 8, hours, 24 hours, 48 hours, and 72 hours post-dose. CSF-1 and CSF-1:Fc fusion protein levels were quantitated in plasma using ELISA assays.

Setting [5] is: day 2 following partial hepatectomy, vs controls.

`COc1ccc(COc2ccc(Cc3cnc(N)nc3N)cc2OC)cc1` [GW2580, reference compound]: the “serum ALT (marker of liver injury)” value in data set [1] (CSF1 receptor blockade, 180 mg/kg via gavage) is recorded as “raised”. In addition, the hepatocyte proliferation entry in data set [1] (CSF1 receptor blockade, 180 mg/kg via gavage, Day 3) is “markedly impaired”. Also, in data set [1] (setting [5]), the “gene expression of oncostatin M (OSM)” value was “significant reduction” and the “gene expression of pro-regenerative cytokine 116” value is on record as “significant reduction”. Besides, the “urokinase receptor (UR) expression” value in data set [1] (following partial hepatectomy, vs controls) was “reduction”. In data set [2], the hepatocyte proliferation result is “impaired”, the “liver weight to body weight ratio” value was “reduced” and the “serum ALT (marker of liver injury)” value was “raised”.

B1: CSF-1: unmodified recombinant pig CSF-1 protein, non-fusion comparator (protein)
chain: SENCSHMIGDGHLKVLQQLIDSQMETSCQIAFEFVDQEQLTDPVCYLKKAFLQVQDILDETMRFRDNTPNANVIVQLQELSLRLNSCFTKDYEEQDKACVRTFYETPLQLLEKIKNVFNETKNLLKKDWNIFSKNCNNSFAKCSSQDVVTKPDCN
As for B1, in data set [3], the total body weight result is listed as “no effect”. For the same molecule, in data set [4], the peak plasma level result is given as “around 100 ng/ml” and the “time by which completely cleared from plasma” value was ≤ 20 h.
